Reference: patent US20190336579A1, “COMPOSITIONS AND METHODS TO INDUCE TARGETED APOPTOSIS BY MODULATING PROTEIN TYROSINE PHOSPHATASE 13 (PTPN13)” (National Jewish Health, priority 2010, published 2019)

Columns and labels:
PTPN13 mRNA = PTPN13 mRNA expression by quantitative PCR in lung fibroblasts; assay type: cell-based, human; conditions: NHLF, FHLF and MRC5 cells; TNF-α 10 ng/ml, IFN-γ 50 U/ml; 6 hours; compared to untreated cells
Experimental: (§1) To assess the effects of these cytokines on PTPN13 expression, non-diseased normal human lung fibroblasts (NHLF), fibrotic human lung fibroblasts (FHLF) and a fetal lung fibroblast cell line, MRC5 cells, were treated with TNF-α (10/ng/ml), IFN-γ (50 U/ml) or with both cytokines for 6 hours. PTPN13 expression was measured by quantitative PCR (FIG. 2A). The primary lung fibroblasts from normal and fibrotic lung had equivalent levels of PTPN13 expression to the MRC5 lung fibroblast cell line. […] Treatment with TNF-α alone caused a 40% decrease in PTPN13 expression. Combined exposure to TNF-α and IFN-γ decreased PTPN13 mRNA expression by 80%. Protein lysates from normal, fibrotic and MRC5 fibroblasts treated for 36 hours with TNF-α (10/ng/ml), IFN-γ (50 U/ml) or with both cytokines were then analyzed for PTPN13 expression. […]
FIG. 2: TNF-α and IFN-γ decrease PTPN13 expression. […] Top panel is a quantitative RT-PCR analysis of PTPN13 mRNA lower panel is a Western blot analysis for PTPN13 protein. […] Caspase-8 was measured using a fluorescence based assay.
Total RNA was obtained from 1×10^6 MRC5 cells using the Qiagen RNA Miniprep Kit (Qiagen) following the manufacturer's instructions. […] The fluorescence values of the threshold cycles were collected and normalized to GAPDH. Data are expressed as the relative change in mRNA expression compared to the untreated control.

PTPN13 protein = PTPN13 protein expression by Western blot in lung fibroblasts; assay type: cell-based, human; conditions: normal, fibrotic and MRC5 fibroblasts; TNF-α 10 ng/ml, IFN-γ 50 U/ml; 36 hours
Experimental: as §1
In one exemplary method, to assess whether PTPN13 expression prevents Fas-induced apoptosis, PTPN13 expression was knocked-down using siRNA. […] Apoptosis was assayed by quantifying activation of caspase-3 and caspase-8 (FIG. 3C).
FIG. 3: Decreased PTPN13 expression sensitizes fibroblasts to Fas-induced apoptosis. […] PTPN13 expression was quantified by western blot analysis and densitometry was performed. […] Fas activating antibody (250 ng/ml) (Fas activating antibody) or PBS (unstimulated) was added for 2 hours before analyzing Caspase-8 activation by a fluorescence-based assay. […]

[1] = Bleomycin murine model of fibrosis, mortality; assay type: in vivo, mice; conditions: 2.5 U/kg bleomycin into the trachea
Experimental: To assess the effect of PTPN13 on development of fibrosis in vivo, we used a murine model of fibrosis in a PTPN13−/− mouse. The PTPN13−/− mouse has been characterized by Grusby to have abnormal STAT4 signaling which leads to augmented skewing toward TH1 or TH2 phenotypes. 2.5 U/kg bleomycin was administered directly into the tracheas of PTPN13−/− mice along with wildtype controls. […] Due to drastic weight decreases in the wildtype mice, two weeks was chosen as the end time point. […] Of the 20 wildtype mice treated with bleomycin, 11 (55%) died before two weeks as compared to the PTPN13−/− mice where three of the 20 (15%) died. Saline had no effect on mortality. Then static compliance was measured. […] Collagen content was measured in the lung using a hydroxyproline assay. […] To determine a possible cause for the decreased static compliance in the PTPN13−/− mice, we also measured other markers of lung disease, such as cellular infiltration and capillary leak. We measured the cellularity of the bronchoalveolar fluid (BALF). […] Capillary leak was determined by albumin present in the BALF (FIG. 6F). […] To validate these findings, stereology was performed on lung sections to quantify presence of collagen and diseased areas. […] Percentage of diseased lung was also measured by stereology. […]
FIG. 6: Deficiency of PTPN13−/− Leads to Decreased Bleomycin-induced Lung Fibrosis. […] Collagen content as measured by stereology. […]

Substance	decrease in PTPN13 mRNA expression (PTPN13 mRNA)	PTPN13 protein expression (Western blot) (PTPN13 protein)	mortality before two weeks ([1]; PTPN13−/− mice, three of 20 died)	mortality before two weeks ([1]; wildtype mice, 11 of 20 died)
TNF-α	40%	decreased	–	–
IFN-γ: Recombinant human IFN-γ purchased from R&D Systems	minimal decrease	not decreased	–	–
bleomycin	–	–	15%	55%
